According to publication PMC2363649, “MDR1 causes resistance to the antitumour drug miltefosine” (British Journal of Cancer, 2001):
pKd: −log10 of the molar value.

Tests used:
P-glycoprotein (PGP) = target: T1, P-glycoprotein (PGP) (Cricetulus griseus, UniProt P21448); assay: MIANS-PGP fluorescence quenching titration; assay type: binding
T1 construct: gene ABCB1; highly purified PGP from CHR B30 cells, labelled with MIANS at two conserved cysteine residues within the Walker A motifs

ABC transporter YvcC = target: T2, ABC transporter YvcC (Bacillus subtilis, UniProt O06967); assay: binding Kd (data not shown; method not stated)
T2 construct: gene bmrA
T2 sequence (O06967 1-589): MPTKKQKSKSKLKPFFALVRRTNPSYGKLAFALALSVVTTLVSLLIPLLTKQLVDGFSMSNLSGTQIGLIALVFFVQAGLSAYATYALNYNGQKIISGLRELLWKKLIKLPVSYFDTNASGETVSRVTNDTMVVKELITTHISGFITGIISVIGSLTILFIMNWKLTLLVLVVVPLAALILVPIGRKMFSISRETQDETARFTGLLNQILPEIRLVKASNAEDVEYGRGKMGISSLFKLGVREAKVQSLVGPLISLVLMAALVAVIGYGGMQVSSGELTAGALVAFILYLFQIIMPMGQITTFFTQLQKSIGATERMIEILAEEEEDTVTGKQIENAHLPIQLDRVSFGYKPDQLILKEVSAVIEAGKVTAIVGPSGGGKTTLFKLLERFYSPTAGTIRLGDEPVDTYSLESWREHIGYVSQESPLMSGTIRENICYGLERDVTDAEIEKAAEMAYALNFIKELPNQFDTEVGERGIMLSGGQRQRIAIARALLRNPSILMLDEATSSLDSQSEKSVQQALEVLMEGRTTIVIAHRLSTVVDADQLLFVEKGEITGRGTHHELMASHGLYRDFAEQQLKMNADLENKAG

T1 sequence (P21448 whole entry): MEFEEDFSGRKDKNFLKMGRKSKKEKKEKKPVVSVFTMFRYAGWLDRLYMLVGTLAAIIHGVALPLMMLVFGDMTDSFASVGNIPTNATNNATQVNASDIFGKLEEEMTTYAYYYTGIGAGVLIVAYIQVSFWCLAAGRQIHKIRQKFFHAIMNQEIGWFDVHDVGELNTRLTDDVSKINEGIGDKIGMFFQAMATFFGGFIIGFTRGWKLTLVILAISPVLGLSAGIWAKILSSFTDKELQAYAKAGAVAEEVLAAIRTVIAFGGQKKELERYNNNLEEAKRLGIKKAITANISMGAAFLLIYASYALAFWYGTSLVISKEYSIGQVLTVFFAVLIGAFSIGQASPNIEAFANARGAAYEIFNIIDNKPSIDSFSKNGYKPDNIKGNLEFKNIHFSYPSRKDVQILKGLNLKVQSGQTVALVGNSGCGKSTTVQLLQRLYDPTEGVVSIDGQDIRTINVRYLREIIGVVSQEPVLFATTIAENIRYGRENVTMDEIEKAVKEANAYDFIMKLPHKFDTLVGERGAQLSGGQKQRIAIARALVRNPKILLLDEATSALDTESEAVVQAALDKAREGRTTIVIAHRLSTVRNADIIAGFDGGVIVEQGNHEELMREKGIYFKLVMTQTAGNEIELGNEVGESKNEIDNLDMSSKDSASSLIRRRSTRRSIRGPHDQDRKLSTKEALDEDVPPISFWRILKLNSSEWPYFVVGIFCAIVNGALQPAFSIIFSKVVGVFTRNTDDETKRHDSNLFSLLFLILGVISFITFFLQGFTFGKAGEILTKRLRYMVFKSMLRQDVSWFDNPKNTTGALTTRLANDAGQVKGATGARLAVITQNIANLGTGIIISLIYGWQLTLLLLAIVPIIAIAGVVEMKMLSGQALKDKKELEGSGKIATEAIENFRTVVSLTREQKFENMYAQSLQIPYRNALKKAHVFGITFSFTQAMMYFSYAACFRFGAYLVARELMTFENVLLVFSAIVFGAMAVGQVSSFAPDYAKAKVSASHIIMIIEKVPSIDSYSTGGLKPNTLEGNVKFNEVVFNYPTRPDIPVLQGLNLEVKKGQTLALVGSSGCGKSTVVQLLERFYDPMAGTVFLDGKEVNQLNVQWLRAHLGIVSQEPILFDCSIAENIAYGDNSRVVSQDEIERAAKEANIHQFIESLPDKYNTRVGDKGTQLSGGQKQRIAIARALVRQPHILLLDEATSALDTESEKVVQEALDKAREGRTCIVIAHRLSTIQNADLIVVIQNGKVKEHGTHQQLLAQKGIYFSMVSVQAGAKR

CCCCCCCCCCCCCCCCOP(=O)([O-])OCC[N+](C)(C)C [miltefosine]
pKd (P-glycoprotein (PGP)): ~5.15 | pKd (ABC transporter YvcC): 5.52 to 5.70
